The values that follow come from US4351948A, “Imidazole hydrazone derivatives” (priority 1980, dated 1982).

Broadly, the LD50 is the dose expected to kill half of the subjects tested.

One data set relates to C. albicans. The experiment in a line: Recovery of viable candida cells from the kidneys of infected mice (p.o. and i.v. treatment). Type of data set: in vivo. Particulars: 25 mg/kg 1 h and 24 h after infection. How it is done:
Mice receive 25×10^4 cells of C. albicans i.v. Treatments (25 mg/kg) administered in PEG/Dextrose 1 h and 24 h after infection. Animals sacrified 48 h after infection and kidneys excised, weighed, homogenized and decimal dilutions spread on glucose-peptone agar.

The subject of a further data set is candida albicans. The experiment in a line: Oral treatment: recovery of viable candida albicans from the kidneys of infected mice. It counts as in vivo. The source says: Effect of oral treatment with HC274, HC316, HC390, HC415 and Ketoconazole on the recovery of viable candida albicans from the kidneys of infected mice.
Another data set relates to Escherichia coli. Kind of data set: Anti-bacterial activity, zone diameter. It counts as cell-based. Particulars: 50 μg, read-out: Zone diameter given by 50 μg of drug. An excerpt: (§1) The anti-bacterial activity of the compound HC274 according to the present invention was also compared with the activity of known anti-bacterial agents with the following results: […]
Another data set deals with Klebsiella pneumoniac. The experiment in a line: Anti-bacterial activity, zone diameter. Type of data set: cell-based. Particulars: 50 μg; Klebsiella pneumoniac; read-out: Zone diameter given by 50 μg of drug.
Text: as §1

The next data set relates to Nocardia asteroides. Kind of data set: Anti-bacterial activity, zone diameter. Type of data set: cell-based. Particulars: 50 μg, read-out: Zone diameter given by 50 μg of drug.
Text: as §1

The next data set relates to Nocardia brasiliensis. The experiment in a line: Anti-bacterial activity, zone diameter. It counts as cell-based. Particulars: 50 μg, read-out: Zone diameter given by 50 μg of drug.
Text: as §1

In the next data set the test system is Proteus vulgaris. The experiment in a line: Anti-bacterial activity, zone diameter. It counts as cell-based. Particulars: 50 μg, read-out: Zone diameter given by 50 μg of drug.
Text: as §1

The subject of another data set is Staphylococcus aureus. The experiment in a line: Anti-bacterial activity, zone diameter. Type of data set: cell-based. Particulars: 50 μg, read-out: Zone diameter given by 50 μg of drug.
Text: as §1

A further data set deals with Streptococcus pyrogenes. Kind of data set: Anti-bacterial activity, zone diameter. Type of data set: cell-based. Particulars: 50 μg; Streptococcus pyrogenes; read-out: Zone diameter given by 50 μg of drug.
Text: as §1

Another data set deals with pseudomonas aeruginosa. Kind of data set: Anti-bacterial activity, zone diameter. Particulars: 50 μg; pseudomonas aeruginosa; read-out: Zone diameter given by 50 μg of drug. Type of data set: cell-based.
Text: as §1

A short description of a further data set: in vivo. Particulars: male mice, 7 day.
The subject of a further data set is C. sporogenes ATCC 19404. Kind of data set: Antianaerobic activity, MIC by standard broth dilution method (Table II). It counts as cell-based. Particulars: Clostridium sporogenes, ATCC19404, 24 h, read-out: Minimal Inhibitory Concentration (MIC). A digest of the protocol: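 Minimum inhibitory concentration determined by standard broth dilution against a single Clostridium sporogenes strain under anaerobic test conditions.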
Background: Dilution methods test growth across graded concentrations, often in twofold steps.

Data set [1] concerns platelet thromboxane generation. Kind of data set: Inhibition of platelet thromboxane generation (TxB2, collagen-stimulated human platelet rich plasma). Type of data set: cell-based. Particulars: Homo sapiens, 10 min, read-out: Activity IC50 (50% inhibition of TxB2 generation).
Data set [2] relates to Desulfovibrio desulfuricans API-BREWER. The experiment in a line: Minimal inhibitory concentration against anaerobic bacteria. Particulars: 24 h.
In data set [3] the test system is Desulfovibrio desulfuricans API-SW2. The data set is described as above. Particulars: for Minimal Inhibitory Concentration: 24 hours at 37° C.

Read-outs that look alike come from different tables or passages of the source.

Consider `Cl.Clc1ccc(/C(Cn2ccnc2)=N\Nc2ccc(Cl)cc2Cl)cc1` [HC274, (E)-1-(4-chlorophenyl)-2-(1H-imidazol-1-yl)ethanone, 2,4-dichlorophenylhydrazone, hydrochloride], for which the figures for the “No. of CFU/g kidney at 48 h” value in the data set with C. albicans (i.v.) and in the data set with C. albicans (p.o.) were 9 × 10^2 CFU/g kidney and 3.3 × 10^3 CFU/g kidney, respectively. Also, the results for the “Recovery of C.albicans (as percentage of control)” value in the data set with candida albicans (5 mg/kg) and in the data set with candida albicans (20 mg/kg) were 84.2 percentage of control and 47.8 percentage of control, respectively. The zone of inhibition at 50 µg/disc was 0 mm in the data set on Escherichia coli; 0 mm in the data set with Klebsiella pneumoniac; 11 mm in the data set with Nocardia asteroides; 12 mm in the data set with Nocardia brasiliensis; 0 mm with Proteus vulgaris; 8 mm with Staphylococcus aureus. Further, the zone of inhibition at 50 µg/disc in the data set on Streptococcus pyrogenes was 9 mm; in the data set on pseudomonas aeruginosa, 0 mm. Moreover, the LD50 at 168 h in the data set “in vivo” (mouse, in vivo, iv, read-out: LD50) is 85 mg/kg. The LD12.5 in the data set “in vivo” (p.o.) is listed as 440 mg/kg. For the same compound, the MIC came out at 2.5 µg/mL with C. sporogenes ATCC 19404 (Test 1); 2.5 µg/mL with C. sporogenes ATCC 19404 (Test 2); 7.5 µg/mL with C. sporogenes ATCC 19404 (Test 3); 0.75 µg/mL in [2] (read-out: Minimal Inhibitory Concentration, Test 1, 24 hours at 37° C.); 1 µg/mL in data set [2] (read-out: Minimal Inhibitory Concentration, Test 2, 24 hours at 37° C.); 0.5 µg/mL in data set [2] (read-out: Minimal Inhibitory Concentration, Test 3, 24 hours at 37° C.). Besides, the MIC in data set [3] (Desulfovibrio desulfuricans, APISW2, 24 h, read-out: Minimal Inhibitory Concentration) came to 1 µg/mL. The IC50 in data set [1] came to 15.9 µM. Besides, the “Minimal Inhibitory Concentration” value in data set [3] (Test 2) and in data set [3] (Test 3) was 1.0 mg/L each time.
